Read-outs that look alike come from different tables or passages of the source.
Tests used:
[1] = system: SARS-CoV-2-infected rhesus macaques; test: SARS-CoV-2-infected rhesus macaques, early-stage SSK1 treatment (2.0 mg/kg once daily for 7 days from 0 dpi); format: in vivo; conditions: for Clinical observation: Body weight change (%) / Clinical observation: Increased temperature: 2.0 mg/kg
[2] = system: GLB1 knockdown (shGLB1-1 and -2) senescent cells; test: Cell viability of GLB1 knockdown senescent cells; format: cell-based; conditions: SSK1 0.5 μM; shGLB1-1 and -2 vs shControl
Procedure: Plasmids used to interfere the expression of GLB1 with short hairpin RNAs (shRNAs) were obtained from Sigma MISSION shRNA. Genetic knockdown was performed according to the manufacturer's protocol.
Lentivirus production, collection, and infection were as described (Zhao et al., Cell Stem Cell 3, 475-479(2008)).
To test the viability of senescent and non-senescent cells treated with SSK1, cells were stained with a mixture of Hoechst 33342 and propidium iodide (PI) (CA1120, Solarbio) to distinguish living and dead cells. After treatment with the small molecules, the cell culture medium was removed, and the cells were washed once with PBS. Then, the cells were stained according to the manufacturer's protocol, where the final concentrations of Hoechst 33342 and PI were 5 μg/ml and 2 μg/ml in PBS buffer. The plate was incubated at 4° C. for 30 min and observed on a fluorescence microscope or automatic cell imaging system. Viable cells were quantified using a MD Image Xpress Micro XL (Molecular Devices).

[3] = system: human senescent fibroblasts induced by different stimuli; test: Cell viability, senescent and non-senescent human embryonic fibroblasts (HEFs); format: cell-based
Procedure: Human embryonic skin fibroblasts (HEFs) were obtained as previously described. Briefly, human embryonic skin tissues, obtained from aborted tissue with informed patient consent, were minced with forceps and incubated in 1 mg/ml collagenase IV for 1-2 hours at 37° C. After enzyme treatment, cells were collected by centrifugation and resuspended in HEF medium (Dulbecco's modified Eagle's medium (DMEM, Gibco) containing 10% fetal bovine serum (FBS, Ausbian), 1% GlutaMAX (Gibco), 1% Non-Essential Amino Acids (NEAA, Gibco) and 1% penicillin/streptomycin (Gibco). Cells were plated on 10 cm tissue culture dishes and grown in 10% FBS DMEM.
(§1) For replication-induced senescence, cells were passaged until they lost the ability to proliferate and became senescent. NBFs were used as senescent cells after approximately 8-9 passages or 12 population doublings. HEFs were used after approximately 35 passages or 50 population doublings. HUVECs were senescent after approximately 18 passages or 24 population doublings.
For ionizing radiation-induced senescence, MEFs and HEFs were exposed to 10 Gy of ionizing irradiation in an RS 2000 X-ray Biological Irradiator (Rad Source Technologies, Inc.) at a dose rate of 1.205 Gy/min. The day after irradiation, MEFs or HEFs were passaged at a 1:3 dilution and cultured for another three days. Then these cells were plated to carry out further experiments.
For etoposide-induced senescence, MEFs were treated with 2 μM etoposide for 20 hours, and HEFs were treated with 10 μM etoposide for 12-18 hours. Three days after treatment, cells were sub-cultured at a 1:3 ratio for 72 hours in a fresh medium before further analysis.
(§2) To test the viability of senescent and non-senescent cells treated with SSK1, cells were stained with a mixture of Hoechst 33342 and propidium iodide (PI) (CA1120, Solarbio) to distinguish living and dead cells. […] The plate was incubated at 4° C. for 30 min and observed on a fluorescence microscope or automatic cell imaging system. Viable cells were quantified using a MD Image Xpress Micro XL (Molecular Devices).

[4] = system: primary mouse fibroblasts and their replication-induced senescent counterparts; test: Cell viability testing, senescent vs non-senescent primary mouse fibroblasts; format: cell-based; conditions: increasing doses; senescent vs non-senescent cells
Procedure: Mouse embryonic fibroblasts (MEFs) were isolated from E13.5 embryos as described previously (Zhao et al., Cell Stem Cell 23, 31-45 e37([…])). Newborn mouse skin fibroblasts (NBFs) were isolated from the skin of day 1-3 newborn mice. Adult mouse lung fibroblasts were isolated from 2-month-old and 23-month-old mice. Briefly, mouse embryonic tissues, skin and lung were obtained from described donor mice. Then, these tissues were minced with forceps and incubated in 2 mg/ml collagenase IV (Gibco) for 2-4 hours at 37° C. After enzyme treatment, cells were collected by centrifugation and resuspended in high-glucose DMEM (Gibco) supplemented with 10% fetal bovine serum (FBS) and 1% penicillin-streptomycin (Gibco). The three types of mouse primary cells were all cultured in a humidified incubator at 37° C. and 5% CO2.
To avoid replication-induced senescent cells, low-passage proliferative NBFs (<3 passages), MEFs (<3 passages), mouse lung fibroblasts (<3 passages), HEFs (<10 passages), and HUVECs (<6 passages) were used as normal controls. To induce cell quiescence, MEFs were cultured in DMEM without FBS for 2 days.
as §1
as §2, with “cells. After treatment with the small molecules, the cell culture medium was removed, and the cells were washed once with PBS.” for “cells.”

[5] = rhesus monkey, in vivo

CC(=O)OCC1O[C@@H](Oc2ccc(COC(=O)Nc3ccn([C@@H]4O[C@H](CO)C(O)C4(F)F)c(=O)n3)cc2[N+](=O)[O-])C(OC(C)=O)C(OC(C)=O)[C@H]1OC(C)=O (stereo partly shown) [SSK1]
Progression of pulmonary infiltrates on chest X-ray ([1]; 6 dpi compared to 3 dpi): no progression
Clinical observation: Body weight change (%) ([1]; M1 adult 5-year): +4.62%
Clinical observation: Increased temperature ([1]; M1 adult 5-year): light
Clinical observation: Body weight change (%) ([1]; M2 adult 5-year): +1.64%
Clinical observation: Increased temperature ([1]; M2 adult 5-year): light
Large necrotic lesions in the livers at necropsy ([1]; SSK1-treated group): not in the SSK1-treated group
Lung histopathology (H&E) ([1]; SSK1-treated group): minimally thickened alveolar septum and focal edema
Serum level of IL-18 ([1]; SSK1-treated group): increased significantly
Virus shedding (virus load in nose, throat, anal swabs and blood, RT-qPCR) ([1]; SSK1-treated group): no delay but even faster reduction in virus shedding
Body temperature ([1]; SSK1-treated group, 2 mg/kg): relatively stable
Body weight ([1]; SSK1-treated group, 2 mg/kg, 0 to 7 dpi): remained constant
Airway narrowing and mucinous secretions (AB-PAS staining) ([1]; SSK1 treatment): recovered the airway narrowing and extensive mucinous secretions
Gross lung lesions at necropsy ([1]; animal M1): Some brown punctate lesions
Pulmonary hemorrhages (H&E) ([1]; animal M1): local pulmonary hemorrhages
Ground-glass opacification in the lungs on X-ray ([1]; animal M1, 2 mg/kg, 3 dpi): Ground-glass opacification appeared
Gross lung lesions at necropsy ([1]; animal M2): No obvious lung lesions
Signs of pneumonia on X-ray ([1]; animal M2, 2 mg/kg): no signs of pneumonia on X-ray throughout the experiment
Concentrations of inflammatory cytokines GM-CSF, IL-1β, IL-12, MIP-1A and TNF-α in lung tissues ([1]; vs vehicle): lower
Viral load in the respiratory tract tissues and multiple organs ([1]; vs vehicle-treated group): grossly lower
Effect of GLB1 knockdown on killing of senescent cells by SSK1 [2]: impaired the ability of SSK1 to kill SA-β-gal-positive senescent cells
Clearance of senescent cells ([3]; senescent HEFs induced by different stresses vs non-senescent counterparts): cleared by SSK1
Percentage of cell viability in senescent cell populations ([3]; vehicle or treated senescent HEFs, FIG. 2F): dose dependent decrease of senescent cells
Selective killing of senescent cells (viable cells) [4]: selectively and potently eliminated SA-β-gal-positive senescent cells over non-senescent cells with a wide therapeutic window
UA ([5]; 0.5 mg/kg): 9 µmol/L
UA ([5]; 2 mg/kg): 10 µmol/L

— patent US12576155B2, “Senolytic and antiinflammatory prodrugs and methods of use thereof” (priority 2019, dated 2026)
